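Protocol summary: plate cells (96-well), add compound at 5 concentrations, incubate 48 h, interpolate endpoints linearly. Abbreviation: GI50, concentration required for 50% inhibition of growth.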 Calls of active or inactive are those of the source. Cut-off read from the data, not from the text of the source: active = GI50 up to about 1.1 µM and inactive = higher.
Tests used:
Assay in all cases: inhibition of tumour cell growth, NCI panel, 48 h
K562 = tested on: K562
OVCAR-4 = tested on: OVCAR-4
EKVX = tested on: EKVX
A498 = tested on: A498
SNB-75 = tested on: SNB-75
SF-295 = tested on: SF-295
SK-MEL-2 = tested on: SK-MEL-2
ACHN = tested on: ACHN
MDA-N = tested on: MDA-N
SK-MEL-28 = tested on: SK-MEL-28
SF-268 = tested on: SF-268
HOP-62 = tested on: HOP-62
IGROV-1 = tested on: IGROV-1
M14 = tested on: M14
UO-31 = tested on: UO-31
NCI-H522 = tested on: NCI-H522
NCI/ADR-RES = tested on: NCI/ADR-RES
TK-10 = tested on: TK-10
RXF 393 = tested on: RXF 393
SN12C = tested on: SN12C

Compound | GI50 (K562) | GI50 (OVCAR-4) | GI50 (EKVX) | GI50 (A498) | GI50 (SNB-75) | GI50 (SF-295) | GI50 (SK-MEL-2) | GI50 (ACHN) | GI50 (MDA-N) | GI50 (SK-MEL-28) | GI50 (SF-268) | GI50 (HOP-62) | GI50 (IGROV-1) | GI50 (M14) | GI50 (UO-31) | GI50 (NCI-H522) | GI50 (NCI/ADR-RES) | GI50 (TK-10) | GI50 (RXF 393) | GI50 (SN12C)
CC(C)OC(=O)c1ccc(CCC2=CC(=O)C(Br)=CC2=O)cc1 | 2.84 µM (inactive) | 5.75 µM (inactive) | 16.3 µM (inactive) | 35.9 µM (inactive) | 16.1 µM (inactive) | 19.9 µM (inactive) | 15.6 µM (inactive) | 14.5 µM (inactive) | 16.4 µM (inactive) | 18.2 µM (inactive) | 16 µM (inactive) | 29.6 µM (inactive) | 14.4 µM (inactive) | 16.4 µM (inactive) | 13.8 µM (inactive) | 5.56 µM (inactive) | 14.5 µM (inactive) | 19.7 µM (inactive) | 17.1 µM (inactive) | 16.9 µM (inactive)
CC(C)(C)OC(=O)C1=C(N)N(Cc2ccccc2)C2(C)C=CC(=O)C=C12 (stereo not given) | 2.74 µM (inactive) | 3.36 µM (inactive) | 5.73 µM (inactive) | 10.2 µM (inactive) | 13 µM (inactive) | 14.9 µM (inactive) | 11.7 µM (inactive) | 2.47 µM (inactive) | 4.79 µM (inactive) | 7.41 µM (inactive) | 2.18 µM (inactive) | 16 µM (inactive) | 5.31 µM (inactive) | 2.98 µM (inactive) | 3.52 µM (inactive) | 1.67 µM (inactive) | 23.9 µM (inactive) | 3.44 µM (inactive) | 2.44 µM (inactive) | 8.47 µM (inactive)
C/C(=C\c1ccccc1)C(=O)NCc1ccc(C(=O)NCCc2c[nH]c3ccccc23)cc1 | > 100 µM (inactive) | 86.5 µM (inactive) | 48.9 µM (inactive) | 22 µM (inactive) | > 100 µM (inactive) | > 100 µM (inactive) | > 100 µM (inactive) | 38.1 µM (inactive) | > 100 µM (inactive) | > 100 µM (inactive) | > 100 µM (inactive) | 82 µM (inactive) | > 100 µM (inactive) | > 100 µM (inactive) | 51.6 µM (inactive) | 69 µM (inactive) | > 100 µM (inactive) | 16.4 µM (inactive) | > 100 µM (inactive) | > 100 µM (inactive)
COC(=O)c1cc(C#N)[nH]c1-c1ccc(Br)s1 | > 30.8 µM (inactive) | 10.1 µM (inactive) | 3.97 µM (inactive) | 1.03 µM (active) | 8.85 µM (inactive) | 8.41 µM (inactive) | 6.55 µM (inactive) | 13.7 µM (inactive) | 13.7 µM (inactive) | 11.9 µM (inactive) | 10.1 µM (inactive) | 8.39 µM (inactive) | 7.21 µM (inactive) | 9.73 µM (inactive) | 5.7 µM (inactive) | 7.03 µM (inactive) | 10.3 µM (inactive) | 13 µM (inactive) | 4.3 µM (inactive) | 13.1 µM (inactive)
Cc1ccc(O)c(C(c2ccc(C(c3cc(C)ccc3O)c3cc(C)ccc3O)cc2)c2cc(C)ccc2O)c1 | 1.77 µM (inactive) | 1.79 µM (inactive) | 1.87 µM (inactive) | 1.56 µM (inactive) | 1.89 µM (inactive) | 2.06 µM (inactive) | 1.86 µM (inactive) | 1.78 µM (inactive) | 1.52 µM (inactive) | 1.81 µM (inactive) | 1.62 µM (inactive) | 1.92 µM (inactive) | 1.67 µM (inactive) | 1.8 µM (inactive) | 1.85 µM (inactive) | 2.08 µM (inactive) | 1.88 µM (inactive) | 1.56 µM (inactive) | 1.79 µM (inactive) | 1.65 µM (inactive)
CCOC(=O)C(NC(=O)CC)(N1CCN(c2cc3c(cc2F)c(=O)c(C(=O)O)cn3C2CC2)CC1)C(F)(F)F (stereo not given) | > 100 µM (inactive) | > 100 µM (inactive) | > 100 µM (inactive) | > 100 µM (inactive) | > 100 µM (inactive) | > 100 µM (inactive) | > 100 µM (inactive) | > 100 µM (inactive) | > 100 µM (inactive) | > 100 µM (inactive) | > 100 µM (inactive) | > 100 µM (inactive) | > 100 µM (inactive) | > 100 µM (inactive) | > 100 µM (inactive) | > 100 µM (inactive) | > 100 µM (inactive) | > 100 µM (inactive) | > 100 µM (inactive) | > 100 µM (inactive)
COC(=O)C1C(O)C(C)C(O)C(C)(O)C=C(C)C2=C3C(=C(C)C(=O)c4c(O)c(c(C)c(OC(C)=O)c43)NC(=O)C(C)=C/C=C\C(C)(O)C(O)C(C)C1O)OCO2 (stereo not given) | 81.1 µM (inactive) | 56.4 µM (inactive) | > 100 µM (inactive) | > 100 µM (inactive) | > 100 µM (inactive) | > 100 µM (inactive) | 22.9 µM (inactive) | > 100 µM (inactive) | 40.3 µM (inactive) | > 100 µM (inactive) | 75.2 µM (inactive) | > 100 µM (inactive) | 55.6 µM (inactive) | 43.6 µM (inactive) | 91.6 µM (inactive) | 88.3 µM (inactive) | > 100 µM (inactive) | > 100 µM (inactive) | > 100 µM (inactive) | 94 µM (inactive)

Source: ChEMBL document CHEMBL1201862, “PubChem BioAssay data set” (2004)
